Data set [1] relates to Male SD rats. Briefly: Comparison of diuretic effects (urine output of saline-loaded rats). Format: in vivo, rat. The following applies: 30 mL/kg normal saline intragastrically, drug 10 mg/kg iv, urine collected for 4 h. As for the experimental part:
Comparison of Diuretic Effects:
Male SD rats (body weight 180±20 g) were divided into seven groups randomly, three rats a group, and each rat was administered intragastrically 30 mL/kg normal saline. After intragastric administration of normal saline, except the blank control group, each group was given one drug (10 mg/kg, iv, 1 mg/mL, formulation prescription: 0.5% methylcellulose), and the urination was collected for 4 hours.

Data set [2] in a line: Comparison of water solubility of different forms of samples.
For data set [3] the following is noted: cited from earlier work.
For data set [4] the following is noted: cited from earlier work. This is another data set of the same source.

Entries after “also recorded” stand apart in the source; their conditions may differ. Where a name gives a salt, the structure may show the parent alone.

Consider 6 compounds from patent US20220009951A1, “TORSEMIDE PHOSPHATE PRODRUG, PREPARATION METHOD AND COMPOSITION THEREOF” (Shanghai Xunhe Pharmaceutical Technology Co. Ltd., priority 2019, published 2022).

Regarding `Cc1cccc(Nc2ccncc2S(=O)(=O)N(COP(=O)([O-])[O-])C(=O)NC(C)C)c1.[K+].[K+]` [Compound of formula Ib, dipotassium N-hydroxymethyl-torsemide phosphate], in data set [1], the “Urine output (mL/kg, 4 h)” value is listed as 116.8 mL/kg.

Turning to `Cc1cccc(Nc2ccncc2S(=O)(=O)N(COP(=O)(O)O)C(=O)NC(C)C)c1` [Compound of formula Id, N-hydroxymethyl-torsemide phosphate tri-n-butylammonium salt], the “Urine output (mL/kg, 4 h)” value in data set [1] is recorded as 105.6 mL/kg. Also, the “Conclusion (water solubility class)” value in data set [2] is listed as “easily soluble”.

With `Cc1cccc(Nc2ccncc2S(=O)(=O)NC(=O)NC(C)C)c1` [Torsemide, 1-[4-(3-methylphenyl)aminopyridin-3-yl]sulfonyl-3-isopropylurea], the “Urine output (mL/kg, 4 h)” value in data set [1] was determined as 100.3 mL/kg. Further, in data set [3], the pKa value is on record as 6.44. In addition, in data set [4] (0.1 mol/L sodium hydroxide solution), the “solubility in 0.1 mol/L sodium hydroxide solution” value is recorded as “slightly soluble”. Moreover, the solubility in water result in data set [4] (water) is “almost insoluble; also recorded: very slightly soluble”.

As to `Cc1cccc(Nc2ccncc2S(=O)(=O)N(COP(=O)(O)O)C(=O)NC(C)C)c1` [Compound of formula Ic, N-hydroxymethyl-torsemide phosphate triethylammonium salt], in data set [1], the “Urine output (mL/kg, 4 h)” value is given as 103.4 mL/kg. In addition, the “Conclusion (water solubility class)” value in data set [2] is recorded as “easily soluble”.

`Cc1cccc(Nc2ccncc2S(=O)(=O)N(COP(=O)(O)O)C(=O)NC(C)C)c1` [Compound of formula I, N-hydroxymethyl-torsemide phosphate]: in data set [1], the “Urine output (mL/kg, 4 h)” value was 105.4 mL/kg. Also, the “Conclusion (water solubility class)” value in data set [2] is “soluble”.

Take `Cc1cccc(Nc2ccncc2S(=O)(=O)N(COP(=O)([O-])[O-])C(=O)NC(C)C)c1.[Na+].[Na+]` [Compound of formula Ia, disodium N-hydroxymethyl-torsemide phosphate]: the “Urine output (mL/kg, 4 h)” value in data set [1] is given as 121.6 mL/kg.
